Test results: patent US20160193162A1 (TIANJIN TAIPU PHARMACEUTICAL SCIENCE & TECHNOLOGY …, priority 2013, published 2016)
Where two headings read alike, the source gives them in different places.

How the values were obtained:
[1] = test system: brain nerve cells of an adult rat; conditions: cited from earlier work
[2] = I-form crystal purity by DSC of raw material after pulverization, grinding, tabletting; type: physicochemical
Text: Change of the crystalline I-form raw material in pulverization, grinding, and tabletting (at a pressure of 10 kg) was detected by DSC (see FIGS. 1-4).

[3] = stability in the process: crystal form purity (DSC) and relevant substances (HPLC); type: physicochemical; conditions: stage of the manufacturing process
Text: Referring to the aforementioned test 6, tablets were manufactured according to formulation and process with hydroxyproplyl methyl cellulose and polyvinylpyrrolindone k30 in a concentration of 15% as a protective agent.
1) Stability in the process: crystal form purity of the tablets was detected using DSC method with crystal forms and relevant substances as evaluation indexes. Regarding detection of relevant substances, HPLC method was adopted using imported drug as a standard.

[4] = solubility of crystalline I-form agomelatine in solvents; type: physicochemical
[5] = powder diffraction of sample tablets after acceleration; type: physicochemical; conditions: sample tablets accelerated for two months
Text: Chinese patent CN1101704763A recites a preparation method of the I-form crystals. […] Changes in crystal forms, on the one hand may result in infringement, and on the other hand may further lead to inconsistency in bioavailability of drugs. Therefore, it is very important to solve the problem of stability of crystal forms during the processes of the tablet manufacture and preservation.

[6] = test on influencing factors (high temperature, high humidity); type: physicochemical
Protocol: 2) Test on influencing factors: we investigated in combination with formulations of the present invention: the samples were allowed to stand in an open state for 30 days under the conditions of a high temperature of 60° C., a high humidity of RH 92%, and both high temperature and high humidity (40° C., RH75%), respectively.

I-form crystal purity (%) detected by DSC ([2]; after grinding) | I-form crystal purity (%) detected by DSC ([2]; after pulverization) | I-form crystal purity (%) detected by DSC ([2]; after tabletting at a pressure of 10 kg) | I-form crystal purity (%) detected by DSC ([2]; raw material, untreated) | Crystal form purity ([3]; DSC) | Relevant substances ([3]; HPLC) | solubility ([4]; in DMSO) | solubility ([4]; in acetonitrile) | solubility ([4]; in ethanol) | solubility ([4]; in methanol) | solubility ([4]; in water) | Crystal form purity % ([6]; 0 day) | Crystal form purity % ([6]; 10 days at a high humidity (RH 92%), open state) | Crystal form purity % ([6]; 10 days at a high temperature (60° C.), open state) | Crystal form purity % ([6]; 10 days at both high temperature and high humidity (40° C., RH75%), open state) | SMILES | cell proliferation and neuronal regeneration in hippocampal ventral dentate gyrus ([1]; acute or subacute administration (4 hours or nine weeks)) | cell proliferation and neuronal regeneration in hippocampal ventral dentate gyrus ([1]; long-term (three weeks) administration) | crystal form by powder diffraction [5]
– | – | – | – | – | – | – | – | – | – | – | – | – | – | – | COc1ccc2cccc(CCNC(C)=O)c2c1 [Agomelatine, agomelatine] | no similar situation occurred | increase cell proliferation and neuronal regeneration | –
97.5% | 90.0% | 74.3% | 100% | 100 | 0.32% | very soluble | very soluble | very soluble | very soluble | almost insoluble | 100% | 80% | 65% | 35% | COc1ccc2cccc(CCNC(C)=O)c2c1 [agomelatine] | – | – | almost completely converted to the II form
